According to patent US20240003908A1, “POLYOL BIOMARKERS FOR CONGENITAL DISORDERS OF GLYCOSYLATION” (Mayo Foundation for Medical Education and Research, priority 2020, published 2024):
Marks after values point to notes of the source that are not given here.

Tests used:
child with PMM2-CDG = assay: Single patient (P1) study: safety and tolerability of oral epalrestat; assay type: in vivo, human; settings: for liver elastography Interquartile Range to Median ratio: normal below 25%
Procedure: Study design: An open label, single patient (P1) compassionate use study was designed to assess the safety and tolerability of oral epalrestat therapy in a child with PMM2-CDG.
Patient assessment: Prior to the first dose of epalrestat and at 1, 2, 3, 6, 8, 9, 12 months during treatment, concomitant medications and vital signs were recorded and the patient was evaluated using the NPCRS. In addition, blood was drawn for serum chemistry, hematology, and plasma levels of epalrestat. Urine was collected for polyol measurement at baseline and twice over the course of 12 months of therapy.
Drug administration: Epalrestat was administered orally, 3 times per day (TID) before meals in a divided dose (0.8 mg/kg/day; 5 mg TID) of epalrestat (Ono Pharmaceuticals, Osaka, Japan) starting on Day 1 of the study.
Safety and efficacy: Safety measures included vital signs, change in CBC, liver function (INR, bilirubin, transaminases, and albumin) in blood, change in liver elastography, and following the pharmacokinetic profile of epalrestat. The efficacy of epalrestat was studied by clinical follow up (physical exam, NPCRS, ICARS), standard laboratory tests, and transferrin glycoform analysis by mass spectrometry.

PMM enzyme = PMM enzyme activity in PMM2-CDG patient fibroblasts treated with epalrestat (spectrophotometric); assay type: cell-based, human; settings: for Fold change 5 μM epalrestat (PMM enzyme activity) / Fold change 10 μM epalrestat (PMM enzyme activity) / Fold change 20 μM epalrestat (PMM enzyme activity): 24 hours, baseline = 1; for Highest fold change (PMM enzyme activity): at best dose; for Best dose: of 5, 10, 20 μM
Procedure: Effect of epalrestat on […] enzyme in vitro: Patient-derived and control fibroblasts (GM5381, GM5400; GM5757, GM00038, GM8680, GM01863, GM8400; Coriell Institute, Camden, NJ) were cultured in Minimum Essential Media (MEM; Gibco, Carlsbad, CA; 1 g/L glucose) supplemented with 10% Fetal Bovine Serum (FBS; Gibco), […] (P/S) and maintained in an incubator at 37° C., 5% CO2 in the presence and absence of epalrestat for 24 hours (Iyer et al., Disease Models & Mechanisms 12:11, 2019). Cells were cultured and harvested by trypsinization with 0.05% Trypsin-EDTA (Gibco). PMM and phosphomannose isomerase (MPI) activity were assayed by spectrophotometric measurements (Van Schaftingen and Jaeken, FEBS Lett 377:318-320, 1995). The effects of epalrestat (5 μM, 10 μM, or 20 μM) on PMM-deficient fibroblasts of 11 patients (P1-P6, P8, P10, P17, P19, P24) were evaluated.

[1] = patient P1, throughout the study

CC(/C=C1\SC(=S)N(CC(=O)O)C1=O)=C\c1ccccc1 [epalrestat]
liver elastography Interquartile Range to Median ratio (child with PMM2-CDG; after 1 month of therapy, prior to therapy 14%): 12% | liver elastography Interquartile Range to Median ratio (child with PMM2-CDG; at 6 months): 20% | liver elastography Interquartile Range to Median ratio (child with PMM2-CDG; at 12 months): 8% | liver elastography (child with PMM2-CDG; patient P1): remained normal | adverse events (child with PMM2-CDG; patient P1, 0.27 mg/kg three times a day, 12 months): No adverse events | CBC with differential, transaminases, bilirubin, and albumin (child with PMM2-CDG; [1]): remained normal | antithrombin III levels and International normalized ratio (INR) (child with PMM2-CDG; [1]): remained at normal levels | vital signs (child with PMM2-CDG; [1]): remained normal | patient fibroblasts that responded (PMM enzyme; 10 μM epalrestat, 8/10): 80% | increase in PMM enzyme activity (PMM enzyme; fibroblasts of P1, 5 μM epalrestat): 43% | increase in PMM enzyme activity (PMM enzyme; fibroblasts of P2, 10 μM epalrestat): 33% | increase in PMM enzyme activity (PMM enzyme; fibroblasts of P3, 10 μM epalrestat): 35% | increase in PMM enzyme activity (PMM enzyme; fibroblasts of P4, 20 μM epalrestat): 50% | increase in PMM enzyme activity (PMM enzyme; fibroblasts of P5, 5 μM epalrestat): 35% | increase in PMM enzyme activity (PMM enzyme; fibroblasts of P8, 10 μM epalrestat): 16% | increase in PMM enzyme activity (PMM enzyme; fibroblasts of P10, 5 μM epalrestat): 22% | increase in PMM enzyme activity (PMM enzyme; fibroblasts of P17, 20 μM epalrestat): 10% | increase in PMM enzyme activity (PMM enzyme; fibroblasts of P19, 20 μM epalrestat): 20% | increase in PMM enzyme activity (PMM enzyme; fibroblasts of P24, 10 μM epalrestat): 36% | Fold change 5 μM epalrestat (PMM enzyme activity) (PMM enzyme; fibroblasts of subject P1, 5 μM): 1.43 | Fold change 10 μM epalrestat (PMM enzyme activity) (PMM enzyme; fibroblasts of subject P1): 1.2 | Fold change 20 μM epalrestat (PMM enzyme activity) (PMM enzyme; fibroblasts of subject P1): 1.2 | Highest fold change (PMM enzyme activity) (PMM enzyme; fibroblasts of subject P1): 1.43* | Best dose (PMM enzyme; fibroblasts of subject P1): 5 µM | Fold change 5 μM epalrestat (PMM enzyme activity) (PMM enzyme; fibroblasts of subject P2, 5 μM): 1.01 | Fold change 10 μM epalrestat (PMM enzyme activity) (PMM enzyme; fibroblasts of subject P2): 1.33 | Fold change 20 μM epalrestat (PMM enzyme activity) (PMM enzyme; fibroblasts of subject P2): 0.7 | Highest fold change (PMM enzyme activity) (PMM enzyme; fibroblasts of subject P2): 1.33 | Best dose (PMM enzyme; fibroblasts of subject P2): 10 µM | Fold change 5 μM epalrestat (PMM enzyme activity) (PMM enzyme; fibroblasts of subject P3, 5 μM): 0.86 | Fold change 10 μM epalrestat (PMM enzyme activity) (PMM enzyme; fibroblasts of subject P3): 1.35 | Fold change 20 μM epalrestat (PMM enzyme activity) (PMM enzyme; fibroblasts of subject P3): 0.9 | Highest fold change (PMM enzyme activity) (PMM enzyme; fibroblasts of subject P3): 1.35 | Best dose (PMM enzyme; fibroblasts of subject P3): 10 µM | Fold change 5 μM epalrestat (PMM enzyme activity) (PMM enzyme; fibroblasts of subject P4, 5 μM): 1.26 | Fold change 10 μM epalrestat (PMM enzyme activity) (PMM enzyme; fibroblasts of subject P4): 1.36 | Fold change 20 μM epalrestat (PMM enzyme activity) (PMM enzyme; fibroblasts of subject P4): 1.5 | Highest fold change (PMM enzyme activity) (PMM enzyme; fibroblasts of subject P4): 1.36 | Best dose (PMM enzyme; fibroblasts of subject P4): 10 µM | Fold change 5 μM epalrestat (PMM enzyme activity) (PMM enzyme; fibroblasts of subject P5, 5 μM): 1.35 | Fold change 10 μM epalrestat (PMM enzyme activity) (PMM enzyme; fibroblasts of subject P5): 0.93 | Fold change 20 μM epalrestat (PMM enzyme activity) (PMM enzyme; fibroblasts of subject P5): 0.9 | Highest fold change (PMM enzyme activity) (PMM enzyme; fibroblasts of subject P5): 1.35 | Best dose (PMM enzyme; fibroblasts of subject P5): 5 µM | Fold change 5 μM epalrestat (PMM enzyme activity) (PMM enzyme; fibroblasts of subject P6, 5 μM): 0.98 | Fold change 10 μM epalrestat (PMM enzyme activity) (PMM enzyme; fibroblasts of subject P6): 0.97 | Fold change 20 μM epalrestat (PMM enzyme activity) (PMM enzyme; fibroblasts of subject P6): 0.6 | Fold change 5 μM epalrestat (PMM enzyme activity) (PMM enzyme; fibroblasts of subject P8, 5 μM): 1.07 | Fold change 10 μM epalrestat (PMM enzyme activity) (PMM enzyme; fibroblasts of subject P8): 1.16 | Fold change 20 μM epalrestat (PMM enzyme activity) (PMM enzyme; fibroblasts of subject P8): 1.1 | Highest fold change (PMM enzyme activity) (PMM enzyme; fibroblasts of subject P8): 1.16 | Best dose (PMM enzyme; fibroblasts of subject P8): 10 µM | Fold change 5 μM epalrestat (PMM enzyme activity) (PMM enzyme; fibroblasts of subject P10, 5 μM): 1.22 | Fold change 10 μM epalrestat (PMM enzyme activity) (PMM enzyme; fibroblasts of subject P10): 1.16 | Fold change 20 μM epalrestat (PMM enzyme activity) (PMM enzyme; fibroblasts of subject P10): 1.2 | Highest fold change (PMM enzyme activity) (PMM enzyme; fibroblasts of subject P10): 1.22 | Best dose (PMM enzyme; fibroblasts of subject P10): 5 µM | Fold change 5 μM epalrestat (PMM enzyme activity) (PMM enzyme; fibroblasts of subject P17, 5 μM): 0.9 | Fold change 10 μM epalrestat (PMM enzyme activity) (PMM enzyme; fibroblasts of subject P17): 0.75 | Fold change 20 μM epalrestat (PMM enzyme activity) (PMM enzyme; fibroblasts of subject P17): 1.1 | Highest fold change (PMM enzyme activity) (PMM enzyme; fibroblasts of subject P17): 1.1 | Best dose (PMM enzyme; fibroblasts of subject P17): 20 µM | Fold change 5 μM epalrestat (PMM enzyme activity) (PMM enzyme; fibroblasts of subject P19, 5 μM): 0.84 | Fold change 10 μM epalrestat (PMM enzyme activity) (PMM enzyme; fibroblasts of subject P19): 1.1 | Fold change 20 μM epalrestat (PMM enzyme activity) (PMM enzyme; fibroblasts of subject P19): 1.2 | Highest fold change (PMM enzyme activity) (PMM enzyme; fibroblasts of subject P19): 1.2 | Best dose (PMM enzyme; fibroblasts of subject P19): 20 µM | Fold change 5 μM epalrestat (PMM enzyme activity) (PMM enzyme; fibroblasts of subject P24, 5 μM): 0.78 | Fold change 10 μM epalrestat (PMM enzyme activity) (PMM enzyme; fibroblasts of subject P24): 1.36 | Fold change 20 μM epalrestat (PMM enzyme activity) (PMM enzyme; fibroblasts of subject P24): 0.9 | Highest fold change (PMM enzyme activity) (PMM enzyme; fibroblasts of subject P24): 1.36 | Best dose (PMM enzyme; fibroblasts of subject P24): 10 µM | increase in PMM enzyme activity (PMM enzyme; nine out of ten patients, 5 μM, 10 μM or 20 μM epalrestat): ≥ 10% | maximal increase in PMM activity (PMM enzyme; patient fibroblasts, with at least one of 5, 10, 20 μM): ≤ 50%
